In EP4104818A1, “OPHTHALMIC COMPOSITION COMPRISING XANTHOHUMOL” (Skeye Pharma GbR, priority 2021, dated 2022):

Key:
[1] = test system: human corneal epithelial cells; assay: cells; assay type: cell-based; details: Corneal epithelial cell, 24 h, read-out: cell viability
Method: Human corneal epithelial cells (hCEC; SCCE016; Merck Millipore, Burlington, MA, USA) were cultured in corneal epithelial cell growth medium with supplement mix (LGC Standards, Teddington, United Kingdom). Approximately 10,000 hCECs were seeded onto each well of a 96-well cell-culture dishes (NUNC, Langenselbold, Germany). Confluent cells were used for Water-soluble tetrazolium salt (WST-1) cell proliferation assays (Hoffmann-La Roche AG, Basel, Switzerland). After 24 hours of incubation with 100 µl of corneal epithelial cell growth medium without its supplement mix (LGC Standards, Teddington, United Kingdom), hCECs were treated with different concentrations of xanthohumol (XH; Selleckchem, Houston, TX, USA) dissolved in dimethyl sulfoxide (DMSO; Carl Roth AG, Karlsruhe, Germany). Control groups were treated with DMSO only. Following another 72 hours of incubation, the cells were incubated with the WST-1 solution for 30 minutes. Substrate turnover was measured with an ELISA reader at 450 nm (Spectramax 190; Molecular Devices, Sunnyvale, CA, USA) and a reference at 690 nm. To determine potential anti-oxidative effects of xanthohumol, hCECs were incubated and treated analogous to the above-mentioned WST-1 cell proliferation assay with minor modifications. […] Following another incubation of the hCECs for 24 hours, the WST-1 assay was further finalized according to the description above.

[2] = test system: Intracellular, mitochondrial reactive oxygen species (ROS); assay: Dihydrorhodamine-123 (DHR-123) assay of intracellular ROS; assay type: cell-based; details: Homo sapiens, HCEC, 2 hours
Method: Intracellular, mitochondrial reactive oxygen species (ROS) were assessed using the cell membrane permeable dihydrorhodamine-123 (DHR-123) assay (D23806; ThermoFisher Scientific, Waltham, MA, USA) according to the manufacturer's instructions. Measurements were made after exposing human corneal epithelial cells to H2O2, xanthohumol or DMSO only for 2 hours. For ROS staining, cells were incubated with 10 µM DHR-123 for 15 minutes. Nucleus staining was performed using Hoechst 33342 nucleic acid stain (H1399; ThermoFisher Scientific, Waltham, MA, USA). Randomly, a minimum of 3 images of every treatment group were acquired with a 20x fluorescence objective using the aforementioned Axio Observer 7. Results were expressed in percent of fluorescence intensity relative to the baseline measurement in the DMSO control group. For quantification of the fluorescence signals, the microscope software ZEN 3.0 (Carl Zeiss AG, Jena, Germany) was used.

[3] = test system: hCEC; assay: BrdU cell proliferation ELISA; assay type: cell-based; details: Homo sapiens, 24 hours, hCECs, no significant change
Method: Proliferation of hCEC was determined using a 5-bromo-2'-deoxyuridine (BrdU) ELISA in accordance with the manufacturers' recommendations (Merck KGaA, Darmstadt, Germany). In brief, approximately 7,000 cells were seeded onto a 96-well cell culture plat e and incubated for 24h to achieve complete adherence of the cells. After 24 hours of incubation with 100 µl of corneal epithelial cell growth medium without its' supplement mix, hCECs were treated with xanthohumol dissolved in DMSO. Following another 24 hours of incubation with BrdU labeling solution, cells were fixed and incubated with anti-BrdU antibodies according to the manufacturer's recommendations. BrdU incorporation into the DNA of hCECs was quantified by absorbance measurement at 450 nm.

[4] = test system: hCEC; assay: Cell scratch assay (hCEC migration / wound healing in vitro); assay type: cell-based, Human
Method: To analyze hCEC migration in vitro, cells were cultured in corneal epithelial cell growth medium with supplement mix until confluence of the cells of a 6-well cell culture plate. Following an incubation period of 24 hours in cell culture medium without supplements, 5 linear scratches were performed in each well using a 200 µl pipette tip (Eppendorf AG, Hamburg, Germany). The hCECs were then incubated prospectively under treatment with xanthohumol or DMSO as a control for up to 72 hours. Reference images were acquired at the beginning of the incubation period using the phase contrast mode on an Axio Observer 7 (Carl Zeiss AG, Jena, Germany). Every 24 hours, follow-up images of 4-5 different scratch sections were acquired. The size of the wound area was analyzed using a semi-automated analysis tool in ImageJ 1.53a (National Institute of Health, Bethesda, MD, USA).

[5] = test system: bovine corneas; assay: Corneal erosion assay on bovine corneas ex vivo; details: up to 72 hours, every 12 hours, compared to the DMSO-treated control group
Method: Furthermore, corneal epithelial cell wound healing was determined on bovine corneas ex vivo. Bovine globes were obtained from a local butchery following approval by the authority for waste management of animal carcasses (ID: DE 09 162 0066-219) and processed within 12 hours post-mortem. The bovine globes were washed in 10% w/v povidone-iodine for 5 minutes. A circular corneal epithelial erosion was created using an 8 mm trephine and a hockey knife (Katena Products Inc., Parsippany, NJ, USA). Subsequently, a sclerocorneal ring was excised with eye scissors (Katena Products Inc., Parsippany, NJ, USA) and transferred to a 60 mm cell culture plate. To acquire reference images of the corneal erosion, the wound area was stained with a 0.8 mg/ml fluorescein sodium solution and illuminated with blue light (approximate wavelength 490 nm). Images were acquired using a distance-fixed digital single lens reflex camera equipped with a macro lens (Canon Inc., Tokyo, Japan). Consequently, the sclerocorneal rings were incubated in Dulbecco's Modified Eagle's Medium (Bio&SELL GmbH, Feucht, Germany) supplemented with 50 IU penicillin/ml and 50 µg streptomycin/ml (Merck Millipore, Burlington, MA, USA) and xanthohumol or DMSO only. Follow-up images were acquired every 12 hours, the cell culture medium was renewed daily.

[6] = test system: Human corneal epithelial cells (hCEC); assay: WST-1 cell viability assay; assay type: cell-based; details: 72 hours of incubation, hCECs, compared to the DMSO-treated control group
Method: Human corneal epithelial cells (hCEC; SCCE016; Merck Millipore, Burlington, MA, USA) were cultured in corneal epithelial cell growth medium with supplement mix (LGC Standards, Teddington, United Kingdom). Approximately 10,000 hCECs were seeded onto each well of a 96-well cell-culture dishes (NUNC, Langenselbold, Germany). Confluent cells were used for Water-soluble tetrazolium salt (WST-1) cell proliferation assays (Hoffmann-La Roche AG, Basel, Switzerland). After 24 hours of incubation with 100 µl of corneal epithelial cell growth medium without its supplement mix (LGC Standards, Teddington, United Kingdom), hCECs were treated with different concentrations of xanthohumol (XH; Selleckchem, Houston, TX, USA) dissolved in dimethyl sulfoxide (DMSO; Carl Roth AG, Karlsruhe, Germany). Control groups were treated with DMSO only. Following another 72 hours of incubation, the cells were incubated with the WST-1 solution for 30 minutes. Substrate turnover was measured with an ELISA reader at 450 nm (Spectramax 190; Molecular Devices, Sunnyvale, CA, USA) and a reference at 690 nm.

SMILES	viability at 100 µM [1] [%]	activity at 100 µM ([2]; H2O2 100 µM only, compared to the control group, read-out: DHE-123 fluorescence) [%]	activity at 1 µM ([3]; 1 µM) [%]	activity at 2.5 µM ([3]; 2.5 µM) [%]	activity at 5 µM ([3]; 5 µM) [%]	wound area ([4]; 1 µM, 72 hours of incubation, control group 73 ± 9%) [%]	wound area ([4]; 2.5 µM, 72 hours of incubation, control group 73 ± 9%) [%]	wound area ([4]; 2.5 µM, after 48 hours, control group 76 ± 7%) [%]	speed of re-epithelialization ([5]; 1 µM)	speed of re-epithelialization ([5]; 2.5 µM)	viability at 1 µM [1] [%]	viability at 2.5 µM [1] [%]	activity at 1 µM ([2]; 1 µM xanthohumol with H2O2 100 µM, relative to the DMSO control group, read-out: DHR-123 fluorescence) [%]	activity at 2.5 µM ([2]; 2.5 µM xanthohumol with H2O2 100 µM, relative to the DMSO control group, read-out: DHR-123 fluorescence) [%]	viability at 1 µM ([6]; 1 µM) [%]	viability at 2.5 µM ([6]; 2.5 µM) [%]	viability at 5 µM ([6]; 5 µM, not significant) [%]
OO [H2O2, hydrogen peroxide, reference compound]	79 ± 14	149 ± 9															
COc1cc(O)c(CC=C(C)C)c(O)c1C(=O)/C=C/c1ccc(O)cc1 [xanthohumol, 1-[2,4-Dihydroxy-6-methoxy-3-(3-methyl-but-2-enyl)-phenyl]-3-(4-hydroxyphenyl)-propenon]			112 ± 26	107 ± 16	95 ± 8	63 ± 14	58 ± 18	66 ± 11	did not show any significant difference	did not show any significant difference	91 ± 11	96 ± 4	97 ± 16	95 ± 26	144 ± 26	127 ± 11	121 ± 24
